Test results taken from US11655239B2 (SHANGHAI INSTITUTE OF MATERIAL MEDICA, CHINESE ACADEMY OF …, priority 2019, dated 2023).

Key:
DDR2 = DDR2 (Homo sapiens (Human), UniProt Q16832); assay: DDR2 enzyme activity test (ELISA); assay type: biochemical; settings: read-out: DDR2 IC50
Procedure: The optical rotation and the inhibitory activity against DDR2 enzyme of the compounds S11-A and S11-B obtained by the resolution in Example 12, and the chirally synthesized compounds S11-A′ and S11-B′ in Example 13 were tested (referred to the operation in Effect example 1), and the results are shown in Table 3 below:
Detection method: Enzyme-linked immunosorbent assay (ELISA)
Test receptor tyrosine kinase: DDR2
The kinase used in the experiment was obtained by our laboratory using the insect baculovirus expression system to express and purify the recombinant protein containing the protein kinase region; polyglutamic acid-tyrosine peptide segment [Poly(Glu, Tyr) 4:1] and sodium vanadate were purchased from Sigma; the anti-phosphorylated monoclonal antibody PY99 was purchased from Santa Cruz; horseradish peroxidase labeled goat anti-murine secondary antibody was purchased from Calbiochem; ATP and OPD were purchased from Sangon Biotech (Shanghai) Co., Ltd.; the remaining reagents were purchased from Sinopharm Chemical Reagent Co., Ltd. The reaction ELISA plate (#2592) was purchased from Corning. The full-wavelength microplate reader for experiment reading was a product of Molecular Device, model: SpectraMax 190; the experimental water was distilled water produced by Sinopharm Group.
The compound was centrifuged at 12,000 g for 5 min, and DMSO was added to prepare a 10^-2M stock solution, which was vortexed evenly, then sonicated for 10 min and stored at −40° C. for later use. During the test, the compound was diluted with DMSO from the stock solution to 100 times the test concentration (the DMSO concentration in the system was 1%).
(§1) 1) Enzyme reaction substrate Poly(Glu, Tyr) 4:1 was diluted to 20 μg/mL with potassium-free PBS (10 mM sodium phosphate buffer, 150 mM NaCl, pH 7.2-7.4), and the microtiter plate was coated with 125 μL/well and placed at 37° C. for 12-16 hours of reaction. The liquid in the well was discard. The plate was washed three times with T-PBS (potassium-free PBS containing 0.1% Tween-20, 200 μL/well), 5 minutes each time. The ELISA plate was dried in an oven at 37° C. for 1 to 2 hours.
(§2) 2) Reaction buffer (50 mM HEPES pH 7.4, 50 mM MgCl2, 0.5 mM MnCl2, 0.2 mM Na3VO4, 1 mM DTT) diluted ATP solution (49 μL) was added to each well, 1 μL of the compound to be tested was added to each well, and then 50 μL of DDR2 kinase domain recombinant protein diluted in the reaction buffer was added to start the reaction. Two control wells without ATP were set in each experiment. The plate placed on a shaker (100 rpm) at 37° C. for 1 hour of reaction. The liquid in the well was discarded and the plate was washed three times with T-PBS.
(§3) 3) Antibody PY99 dilution solution (the antibody was diluted 1:500 with T-PBS containing BSA 5 mg/mL) was added at 100 μL/well, and shaken on a shaker at 37° C. for 0.5 hour of reaction. The liquid in the well was discarded and the plate was washed three times with T-PBS.
(§4) 4) Horseradish peroxidase labeled goat anti-murine secondary antibody dilution solution (the antibody is diluted 1:2000 with T-PBS containing BSA 5 mg/ml) was added at 100 μL/well, and shaken on a shaker at 37° C. for 0.5 hour of reaction. The liquid in the well was discarded and the plate was washed three times with T-PBS.
(§5) 5) 2 mg/ml of OPD color developing solution [diluted with 0.1 M citric acid-sodium citrate buffer (pH=5.4) containing 0.03% H2O2] was added at 100 μL/well and reacted for 1 to 10 minutes at 25° C. in the dark.
(§6) 6) 2M H2SO4 was added at 50 μL/well to stop the reaction, and a tunable wavelength microplate reader VERSAmax was used for reading at a wavelength of 490 nm.
The IC50 value was obtained by four-parameter regression using the software that came with the microplate reader.

VEGFR-1 = VEGFR-1 (Homo sapiens (Human), UniProt P17948); assay: Enzyme selectivity test (ELISA), VEGFR-1; assay type: biochemical
Procedure: as §1, §2, §3, §4, §5, §6
(§7) The IC50 value was obtained by four-parameter regression using the software that came with the microplate reader. […]

PDGFR-α = PDGFR-α (Homo sapiens (Human), UniProt P16234); assay: Enzyme selectivity test (ELISA), PDGFR-α; assay type: biochemical
Procedure: as §1, §2, §3, §4, §5, §6, §7

PDGFR-β = PDGFR-β (Homo sapiens (Human), UniProt P09619); assay: Enzyme selectivity test (ELISA), PDGFR-β; assay type: biochemical
Procedure: as §1, §2, §3, §4, §5, §6, §7

C-Kit = C-Kit (Homo sapiens (Human), UniProt P10721); assay: Enzyme selectivity test (ELISA), C-Kit; assay type: biochemical
Chain of C-Kit (P10721 26-976): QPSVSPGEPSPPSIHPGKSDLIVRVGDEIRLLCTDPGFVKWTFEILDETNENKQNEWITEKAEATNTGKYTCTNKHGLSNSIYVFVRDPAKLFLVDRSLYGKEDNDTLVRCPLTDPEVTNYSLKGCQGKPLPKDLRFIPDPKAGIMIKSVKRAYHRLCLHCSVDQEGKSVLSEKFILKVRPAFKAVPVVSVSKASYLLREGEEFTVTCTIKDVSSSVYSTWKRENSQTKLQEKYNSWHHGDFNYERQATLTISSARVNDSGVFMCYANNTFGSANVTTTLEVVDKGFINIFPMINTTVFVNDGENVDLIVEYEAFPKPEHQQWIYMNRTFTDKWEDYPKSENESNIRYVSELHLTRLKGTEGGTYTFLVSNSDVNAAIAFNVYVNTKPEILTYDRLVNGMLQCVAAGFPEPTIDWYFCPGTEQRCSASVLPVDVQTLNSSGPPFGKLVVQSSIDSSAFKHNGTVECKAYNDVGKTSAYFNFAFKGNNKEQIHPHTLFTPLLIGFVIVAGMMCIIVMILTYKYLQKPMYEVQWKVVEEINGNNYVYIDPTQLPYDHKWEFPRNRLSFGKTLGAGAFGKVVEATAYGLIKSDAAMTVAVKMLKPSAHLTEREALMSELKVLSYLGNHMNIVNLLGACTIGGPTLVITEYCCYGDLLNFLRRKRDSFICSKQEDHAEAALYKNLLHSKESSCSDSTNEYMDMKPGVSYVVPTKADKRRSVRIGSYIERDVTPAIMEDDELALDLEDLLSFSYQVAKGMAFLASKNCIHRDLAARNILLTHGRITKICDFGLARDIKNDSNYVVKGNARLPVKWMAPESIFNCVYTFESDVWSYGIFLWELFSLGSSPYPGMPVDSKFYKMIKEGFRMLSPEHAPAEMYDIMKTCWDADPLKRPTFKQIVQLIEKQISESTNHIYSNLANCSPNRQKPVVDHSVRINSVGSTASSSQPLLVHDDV
Procedure: as §1, §2, §3, §4, §5, §6, §7

Flt-3 = Flt-3 (Homo sapiens (Human), UniProt P36888); assay: Enzyme selectivity test (ELISA), Flt-3; assay type: biochemical
Chain of Flt-3 (P36888 27-993, species assumed): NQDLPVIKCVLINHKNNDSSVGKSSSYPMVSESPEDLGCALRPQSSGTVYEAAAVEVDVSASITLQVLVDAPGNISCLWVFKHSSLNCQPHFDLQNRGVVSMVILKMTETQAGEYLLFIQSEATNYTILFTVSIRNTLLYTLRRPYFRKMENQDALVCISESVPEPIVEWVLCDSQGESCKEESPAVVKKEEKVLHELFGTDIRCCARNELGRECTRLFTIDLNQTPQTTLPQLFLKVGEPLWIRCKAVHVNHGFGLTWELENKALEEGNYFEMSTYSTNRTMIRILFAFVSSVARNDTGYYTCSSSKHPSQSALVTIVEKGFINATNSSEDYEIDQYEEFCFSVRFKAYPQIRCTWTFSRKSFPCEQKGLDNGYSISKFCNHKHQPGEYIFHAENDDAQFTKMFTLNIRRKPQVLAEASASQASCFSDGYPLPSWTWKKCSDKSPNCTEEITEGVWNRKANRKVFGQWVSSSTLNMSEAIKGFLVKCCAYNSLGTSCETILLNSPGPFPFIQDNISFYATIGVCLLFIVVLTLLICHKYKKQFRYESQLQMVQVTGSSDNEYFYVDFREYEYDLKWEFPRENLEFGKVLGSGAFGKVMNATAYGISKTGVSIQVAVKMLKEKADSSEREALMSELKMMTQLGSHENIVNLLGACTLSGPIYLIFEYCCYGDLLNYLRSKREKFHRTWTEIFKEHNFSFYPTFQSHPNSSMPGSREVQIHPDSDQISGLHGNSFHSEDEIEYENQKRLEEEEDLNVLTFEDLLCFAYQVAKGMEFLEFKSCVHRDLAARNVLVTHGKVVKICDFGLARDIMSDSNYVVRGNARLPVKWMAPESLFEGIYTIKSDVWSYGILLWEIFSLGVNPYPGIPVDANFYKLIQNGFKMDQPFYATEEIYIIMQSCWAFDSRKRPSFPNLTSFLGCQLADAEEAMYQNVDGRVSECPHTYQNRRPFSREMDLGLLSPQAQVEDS
Procedure: as §1, §2, §3, §4, §5, §6, §7

EGFR = EGFR (Homo sapiens (Human), UniProt P00533); assay: Enzyme selectivity test (ELISA), EGFR; assay type: biochemical
Procedure: as §1, §2, §3, §4, §5, §6, §7

ErbB2 = ErbB2 (Homo sapiens (Human), UniProt P04626); assay: Enzyme selectivity test (ELISA), ErbB2; assay type: biochemical
Procedure: as §1, §2, §3, §4, §5, §6, §7

ErbB4 = ErbB4 (Homo sapiens (Human), UniProt Q15303); assay: Enzyme selectivity test (ELISA), ErbB4; assay type: biochemical
Procedure: as §1, §2, §3, §4, §5, §6, §7

Src = Src (Homo sapiens (Human), UniProt P12931); assay: Enzyme selectivity test (ELISA), Src; assay type: biochemical
Chain of Src (P12931 whole entry, looked up, species assumed): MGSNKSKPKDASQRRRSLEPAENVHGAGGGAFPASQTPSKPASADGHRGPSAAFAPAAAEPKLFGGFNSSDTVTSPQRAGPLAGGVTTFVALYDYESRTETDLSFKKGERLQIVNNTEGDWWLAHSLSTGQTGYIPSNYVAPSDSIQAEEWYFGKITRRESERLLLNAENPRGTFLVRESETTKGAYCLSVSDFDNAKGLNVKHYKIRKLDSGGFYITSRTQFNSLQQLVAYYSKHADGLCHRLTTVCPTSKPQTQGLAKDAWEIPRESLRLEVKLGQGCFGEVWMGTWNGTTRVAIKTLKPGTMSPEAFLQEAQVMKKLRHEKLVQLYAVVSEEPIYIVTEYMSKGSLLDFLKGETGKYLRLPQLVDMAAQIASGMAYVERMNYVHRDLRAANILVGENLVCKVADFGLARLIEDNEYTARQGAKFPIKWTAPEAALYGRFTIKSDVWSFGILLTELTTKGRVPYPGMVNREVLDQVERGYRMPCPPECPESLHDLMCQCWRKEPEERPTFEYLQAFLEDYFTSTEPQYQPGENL
Procedure: as §1, §2, §3, §4, §5, §6, §7

Abl = Abl (Homo sapiens (Human), UniProt P00519); assay: Enzyme selectivity test (ELISA), Abl; assay type: biochemical
Procedure: as §1, §2, §3, §4, §5, §6, §7

EPH-A2 = EPH-A2 (Homo sapiens (Human), UniProt P29317); assay: Enzyme selectivity test (ELISA), EPH-A2; assay type: biochemical
Procedure: as §1, §2, §3, §4, §5, §6, §7

IGF-1R = IGF-1R (Homo sapiens (Human), UniProt P08069); assay: Enzyme selectivity test (ELISA), IGF-1R; assay type: biochemical
Procedure: as §1, §2, §3, §4, §5, §6, §7

AXL = AXL (Homo sapiens (Human), UniProt P30530); assay: Enzyme selectivity test (ELISA), AXL; assay type: biochemical
Procedure: as §1, §2, §3, §4, §5, §6, §7

Met = Met (Homo sapiens (Human), UniProt P08581); assay: Enzyme selectivity test (ELISA), Met; assay type: biochemical
Chain of Met (P08581 25-1390): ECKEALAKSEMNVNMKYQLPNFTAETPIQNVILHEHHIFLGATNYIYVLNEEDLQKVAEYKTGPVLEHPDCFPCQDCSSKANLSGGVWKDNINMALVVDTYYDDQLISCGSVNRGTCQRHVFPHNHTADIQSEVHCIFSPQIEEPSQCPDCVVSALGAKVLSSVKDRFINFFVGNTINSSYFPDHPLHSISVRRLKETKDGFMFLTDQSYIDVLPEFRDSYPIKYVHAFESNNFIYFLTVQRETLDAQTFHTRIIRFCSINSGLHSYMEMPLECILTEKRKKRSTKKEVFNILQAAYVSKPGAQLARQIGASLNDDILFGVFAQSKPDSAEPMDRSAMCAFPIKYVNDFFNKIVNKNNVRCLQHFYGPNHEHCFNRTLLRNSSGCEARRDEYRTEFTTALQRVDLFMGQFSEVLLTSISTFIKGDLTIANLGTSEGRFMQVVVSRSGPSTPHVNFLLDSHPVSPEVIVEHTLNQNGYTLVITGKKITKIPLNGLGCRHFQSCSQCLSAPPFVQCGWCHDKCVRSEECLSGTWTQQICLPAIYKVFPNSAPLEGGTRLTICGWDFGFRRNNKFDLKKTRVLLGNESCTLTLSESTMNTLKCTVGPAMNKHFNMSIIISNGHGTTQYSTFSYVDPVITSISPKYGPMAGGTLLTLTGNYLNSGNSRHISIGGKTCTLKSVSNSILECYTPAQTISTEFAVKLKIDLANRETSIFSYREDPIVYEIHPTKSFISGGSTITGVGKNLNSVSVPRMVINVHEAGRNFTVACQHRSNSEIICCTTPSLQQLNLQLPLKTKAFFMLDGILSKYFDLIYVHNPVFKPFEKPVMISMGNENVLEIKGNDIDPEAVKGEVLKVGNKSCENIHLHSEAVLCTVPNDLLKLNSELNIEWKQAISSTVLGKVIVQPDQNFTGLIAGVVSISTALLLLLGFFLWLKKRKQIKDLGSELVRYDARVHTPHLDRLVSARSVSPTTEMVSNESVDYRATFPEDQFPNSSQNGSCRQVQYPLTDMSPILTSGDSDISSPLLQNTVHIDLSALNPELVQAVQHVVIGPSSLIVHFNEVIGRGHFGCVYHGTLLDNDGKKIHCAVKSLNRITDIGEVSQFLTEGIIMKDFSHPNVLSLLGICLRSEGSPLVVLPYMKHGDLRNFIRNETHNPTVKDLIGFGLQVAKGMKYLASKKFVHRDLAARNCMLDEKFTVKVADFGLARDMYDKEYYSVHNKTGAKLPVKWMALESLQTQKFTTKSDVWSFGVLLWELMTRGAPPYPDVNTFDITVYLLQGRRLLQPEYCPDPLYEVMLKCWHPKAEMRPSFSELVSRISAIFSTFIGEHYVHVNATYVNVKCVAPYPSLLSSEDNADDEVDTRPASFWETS
Procedure: as §1, §2, §3, §4, §5, §6, §7

ALK = ALK (Homo sapiens (Human), UniProt Q9UM73); assay: Enzyme selectivity test (ELISA), ALK; assay type: biochemical
Procedure: as §1, §2, §3, §4, §5, §6, §7

RET = RET (Homo sapiens (Human), UniProt P07949); assay: Enzyme selectivity test (ELISA), RET; assay type: biochemical
Chain of RET (P07949 29-1114, species assumed): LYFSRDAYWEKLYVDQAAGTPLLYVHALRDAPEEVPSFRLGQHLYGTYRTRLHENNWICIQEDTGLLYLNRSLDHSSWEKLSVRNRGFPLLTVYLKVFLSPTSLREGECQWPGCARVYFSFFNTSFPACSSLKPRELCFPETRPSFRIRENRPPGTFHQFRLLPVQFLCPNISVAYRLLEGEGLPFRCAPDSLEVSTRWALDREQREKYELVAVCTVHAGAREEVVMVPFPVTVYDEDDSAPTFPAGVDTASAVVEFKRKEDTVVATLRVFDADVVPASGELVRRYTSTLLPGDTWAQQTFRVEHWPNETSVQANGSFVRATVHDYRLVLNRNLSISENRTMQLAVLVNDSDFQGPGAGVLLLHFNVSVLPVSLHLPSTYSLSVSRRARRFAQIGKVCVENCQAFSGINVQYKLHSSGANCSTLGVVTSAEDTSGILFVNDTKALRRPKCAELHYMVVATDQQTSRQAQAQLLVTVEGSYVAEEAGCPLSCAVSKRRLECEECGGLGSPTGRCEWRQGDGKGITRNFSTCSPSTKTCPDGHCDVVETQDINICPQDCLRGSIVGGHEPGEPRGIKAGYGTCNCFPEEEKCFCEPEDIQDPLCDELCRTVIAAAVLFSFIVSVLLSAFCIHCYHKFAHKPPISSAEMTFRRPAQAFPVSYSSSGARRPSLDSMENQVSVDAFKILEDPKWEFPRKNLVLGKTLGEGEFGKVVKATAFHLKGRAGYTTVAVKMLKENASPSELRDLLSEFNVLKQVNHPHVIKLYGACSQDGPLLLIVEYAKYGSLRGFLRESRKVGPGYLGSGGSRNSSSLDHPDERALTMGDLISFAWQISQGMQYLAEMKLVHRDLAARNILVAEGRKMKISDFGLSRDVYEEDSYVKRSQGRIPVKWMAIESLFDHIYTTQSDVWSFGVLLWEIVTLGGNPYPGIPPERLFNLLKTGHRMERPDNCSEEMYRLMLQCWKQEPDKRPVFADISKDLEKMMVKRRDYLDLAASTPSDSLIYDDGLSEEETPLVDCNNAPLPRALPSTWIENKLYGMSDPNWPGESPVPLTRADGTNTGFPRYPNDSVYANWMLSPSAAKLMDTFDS
Procedure: as §1, §2, §3, §4, §5, §6, §7

FGFR-1 = FGFR-1 (Homo sapiens (Human), UniProt P11362); assay: Enzyme selectivity test (ELISA), FGFR-1; assay type: biochemical
Procedure: as §1, §2, §3, §4, §5, §6, §7

FGFR-2 = FGFR-2 (Homo sapiens (Human), UniProt P21802); assay: Enzyme selectivity test (ELISA), FGFR-2; assay type: biochemical
Procedure: as §1
as §2, with “T-PBS. […]” for “T-PBS.”
as §6, §7

FGFR-3 = FGFR-3 (Homo sapiens (Human), UniProt P22607); assay: Enzyme selectivity test (ELISA), FGFR-3; assay type: biochemical
Procedure: as §1
as §2, with “T-PBS. […]” for “T-PBS.”
as §6, §7

FGFR-4 = FGFR-4 (Homo sapiens (Human), UniProt P22455); assay: Enzyme selectivity test (ELISA), FGFR-4; assay type: biochemical
Procedure: as §1
as §2, with “T-PBS. […]” for “T-PBS.”
as §6, §7

KDR = KDR (Homo sapiens (Human), UniProt P35968); assay: Enzyme selectivity test (ELISA), KDR; assay type: biochemical
Procedure: as §1, §2, §3, §4, §5, §6, §7

P38 MAPK = assay: Enzyme selectivity test (ELISA), P38 MAPK; assay type: biochemical
Procedure: as §1
as §2, with “T-PBS. […]” for “T-PBS.”
as §6, §7

kinases = assay: Enzyme selectivity test, kinase panel overall; assay type: biochemical; settings: kinase panel of Table 5
Excerpt: Except that the enzyme was different, other test methods and conditions were the same as the DDR2 enzyme activity test method in Effect example 1.

[1] = system: lung fibroblast cell line MRC-5; assay: Cytotoxic activity test (MTS), MRC-5; assay type: cell-based, human; settings: 5 μM
Procedure: (§8) Experimental objective: The cytotoxic activity of compound S15 on bronchial epithelial cell line Beas-2B and lung fibroblast cell line MRC-5 was tested.
(§9) 1) The human bronchial epithelial cell line Beas-2B and the human embryonic lung fibroblast cell line MRC-5 were collected, and inoculated at a certain density (about 5000-10000 cells) on a 96-well plate (the edge wells were filled with sterile water or PBS). A control was set on each plate (100 μL of culture medium was added);
(§10) 2) The plate was incubated overnight at 37° C., 5% CO2. The plate was turned upside down and observed under the microscope.
(§11) 3) The solutions of different concentrations of the compounds to be tested were added to each well, and a control well (culture medium and MTS solution with cells but no drug) and a blank well (without cells, medium and MTS solution) were set, 3 to 5 repetition wells were set for each group. Incubation was performed at 37° C. for 48-72 hours.
(§12) 4) 10 μL/well of MTS/PMS (20:1, Promega Corp) solution was added to each well containing 100 μL of culture medium, and then the plate was gently shaken. The plate was incubated at 37° C. for 2 to 4 hours.
(§13) 5) M5 microplate reader (Molecular Device, USA) was used to measure the absorbance of the solution at 490 nm. […]

[2] = system: bronchial epithelial cell line Beas-2B; assay: Cytotoxic activity test (MTS), Beas-2B; assay type: cell-based, human; settings: 5 μM
Procedure: as §8, §9, §10, §11, §12, §13

[3] = system: mouse model of BLM-induced lung injury; assay: Histopathological evaluation of lung sections, H&E staining; assay type: in vivo; settings: mice
Procedure: Experimental objective: This group of experiments aimed to investigate the therapeutic potential of the compound S15 in acute lung injury and inflammation induced by bleomycin (BLM).
Experimental grouping (8 mice per group):
Model group (BLM): the mice received BLM (1.7 U/kg) via intratracheal instillation;
Compound S15 group (S15): this group was divided into three dose groups, namely 30, 60 and 90 mg/kg;
Positive control group (Nintedanib): Nintedanib administration group;
Negative control group (Control): only saline was used.
1) Material acquisition: The fresh tissue was fixed in 4% paraformaldehyde for more than 24 hours. The tissue was removed from the fixative solution and trim the tissue at the target site. The trimmed tissue was marked and placed in the dehydration box for later use.
2) Dehydration: The dehydration box was put in the dehydrator and different concentration gradients of ethanol was used sequentially for dehydration. 75% ethanol (4 hours), 85% ethanol (2 hours), 90% ethanol (2 hours), 95% ethanol (1 hour), absolute ethanol I (30 minutes), absolute ethanol II (30 minutes), alcohol benzene (5-10 minutes), xylene I (5-10 minutes), xylene II (5-10 minutes), wax I (1 hour), wax II (1 hour), wax III (1 hour).
3) Embedment: The wax melted at high temperature was put into the embedding frame; before the wax was cooled and solidified, the tissue was taken out of the dehydration box, put into the embedding frame according to the requirements of the embedding surface, marked and cooled at −20° C. After completely solidified, the wax block was removed from the embedding frame and trimmed.
4) Section: The trimmed wax block was put on a paraffin microtome for sectioning. The section thickness was about 4 μm. The sections were floated on warm water at 40° C. of the flotation workstation and flatten. A glass slide was used to lift the tissue from the warm water, and put into a 60° C. oven for dryness. After the water was dried and the wax melted, the glass slide was taken out and stored at ambient temperature for later use. […]

CCC(NC(=O)c1ccc(C2CC2)c(-c2ccc3nc(Nc4cnn(C5CC5)c4)ncc3c2)c1)c1cccc(C(F)(F)F)c1 (stereo not shown) [Compound S18]
3.7 ± 0.2 nM: IC50 (DDR2)
good selectivity: selectivity for kinases (kinases)
> 1000 nM: IC50 (VEGFR-1) | IC50 (PDGFR-α) | IC50 (PDGFR-β) | IC50 (C-Kit) | IC50 (Flt-3) | IC50 (EGFR) | IC50 (ErbB2) | IC50 (ErbB4) | IC50 (Src) | IC50 (Abl) | IC50 (EPH-A2) | IC50 (IGF-1R) | IC50 (AXL) | IC50 (Met) | IC50 (ALK) | IC50 (RET) | IC50 (FGFR-1) | IC50 (FGFR-2) | IC50 (FGFR-3) | IC50 (FGFR-4) | IC50 (KDR) | IC50 (P38 MAPK)

COC(=O)c1ccc2c(c1)NC(=O)/C2=C(\Nc1ccc(N(C)C(=O)CN2CCN(C)CC2)cc1)c1ccccc1 [Nintedanib]
significant cytotoxicity: cytotoxic activity on MRC-5 [1] | cytotoxic activity on Beas-2B [2]
significantly improved: BLM-induced lung injury, H&E staining ([3]; Effect example 7, 30 mg/kg oral qd 12 days)
improved significantly: BLM-induced lung injury, H&E staining ([3]; Effect example 4, S15 30, 60, 90 mg/kg, Nintedanib 30 mg/kg, oral qd 12 days)
